Two compounds from ChEMBL document CHEMBL1149033, “Novel HIV-inhibitory halistanol sulfates F-H from a marine sponge, Pseudoaxinissa digitata” (J Nat Prod, 1994) can be followed below.

The source made the active and inactive calls. The rule behind the calls is not given here.

Assay [1] concerns Human immunodeficiency virus 1. Nature of the assay: Antiviral activity against HIV1 assessed as cytoprotective activity against viral-infection by NCI primary screen. The format is functional, organism-based.
Assay [2] relates to Human immunodeficiency virus 2. The assay can be described thus: Antiviral activity against HIV2 assessed as cytoprotective activity against viral-infection by NCI primary screen. The assay is classed as functional, organism-based.

For `CCC(C)(C)C(C)CC[C@@H](C)[C@H]1CC[C@H]2[C@@H]3C[C@H](OS(=O)(=O)[O-])[C@H]4C[C@H](OS(=O)(=O)[O-])[C@@H](OS(=O)(=O)[O-])C[C@]4(C)[C@H]3CC[C@]12C.[Na+].[Na+].[Na+]` (some centres undefined) [HALISTANOL SULFATE F], the EC50 in assay [1] came to 3 µg/mL. Moreover, in assay [2], the result was Active.

As for `CC(C)[C@@H](C)CC[C@@H](C)[C@H]1CC[C@H]2[C@@H]3C[C@H](OS(=O)(=O)[O-])[C@H]4C[C@H](OS(=O)(=O)[O-])[C@@H](OS(=O)(=O)[O-])C[C@]4(C)[C@H]3CC[C@]12C.[Na+].[Na+].[Na+]` [HALISTANOL SULFATE G SODIUM], the EC50 in assay [1] came out at 6 µg/mL. The outcome in assay [2] was Active.
